The values below come from publication PMC10175918 (Communications Biology, 2023).

Test in all cases: TGFα-shedding assay-based GPCR screening with chimeric Gα subunit proteins
Common to all, as to assay type: cell-based

Assay [1] has as its target T1, 348 GPCRs (Homo sapiens, UniProt Q9Y5Y4).
T1 construct: expressed in transfected cells; host or cells: HEK293A
T1 sequence (Q9Y5Y4 1-395): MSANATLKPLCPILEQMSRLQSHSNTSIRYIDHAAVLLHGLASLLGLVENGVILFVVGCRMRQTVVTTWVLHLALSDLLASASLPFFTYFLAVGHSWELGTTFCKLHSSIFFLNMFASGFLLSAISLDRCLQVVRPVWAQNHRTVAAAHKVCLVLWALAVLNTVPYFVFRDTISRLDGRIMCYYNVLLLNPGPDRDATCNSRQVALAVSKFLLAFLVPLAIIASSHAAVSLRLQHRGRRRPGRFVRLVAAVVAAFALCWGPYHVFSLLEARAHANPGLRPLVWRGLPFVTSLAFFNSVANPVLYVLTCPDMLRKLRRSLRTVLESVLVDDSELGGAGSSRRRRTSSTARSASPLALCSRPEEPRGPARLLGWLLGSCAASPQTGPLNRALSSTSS
Particulars: 10µM, Favipiravir 100μM.

In assay [2] the target is T2, 348 GPCRs (Homo sapiens, UniProt Q9H3N8).
T2 construct: expressed in transfected cells; host or cells: HEK293A
T2 sequence (Q9H3N8 whole entry): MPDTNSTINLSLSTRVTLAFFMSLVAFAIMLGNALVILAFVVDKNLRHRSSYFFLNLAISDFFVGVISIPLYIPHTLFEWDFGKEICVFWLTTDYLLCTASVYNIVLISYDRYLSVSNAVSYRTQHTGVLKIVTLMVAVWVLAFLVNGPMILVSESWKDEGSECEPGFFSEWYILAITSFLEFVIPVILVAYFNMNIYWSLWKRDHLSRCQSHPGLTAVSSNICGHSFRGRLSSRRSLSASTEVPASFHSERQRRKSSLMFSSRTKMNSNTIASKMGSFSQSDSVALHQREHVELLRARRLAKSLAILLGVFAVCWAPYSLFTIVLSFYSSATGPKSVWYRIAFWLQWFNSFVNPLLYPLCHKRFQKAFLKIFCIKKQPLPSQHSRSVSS
Particulars: 10µM, Favipiravir 100μM.

In assay [3] the target is T3, 348 GPCRs (Homo sapiens, UniProt O95977).
T3 sequence (O95977 1-384): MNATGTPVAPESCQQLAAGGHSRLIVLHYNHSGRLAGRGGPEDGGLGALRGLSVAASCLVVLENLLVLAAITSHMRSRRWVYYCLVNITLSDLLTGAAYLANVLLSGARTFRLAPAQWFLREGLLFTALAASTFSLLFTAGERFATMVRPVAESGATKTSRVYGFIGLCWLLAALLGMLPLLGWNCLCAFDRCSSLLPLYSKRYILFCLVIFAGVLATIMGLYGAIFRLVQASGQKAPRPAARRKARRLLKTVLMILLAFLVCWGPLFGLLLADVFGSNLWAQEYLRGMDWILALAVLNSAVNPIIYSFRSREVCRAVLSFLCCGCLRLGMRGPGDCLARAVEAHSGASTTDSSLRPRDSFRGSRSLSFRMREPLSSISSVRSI
Particulars: 10µM, Favipiravir 100μM.

For assay [4], the target named is T4, 348 GPCRs (Homo sapiens, UniProt Q15760).
T4 construct: expressed in transfected cells; host or cells: HEK293A
T4 sequence (Q15760 whole entry): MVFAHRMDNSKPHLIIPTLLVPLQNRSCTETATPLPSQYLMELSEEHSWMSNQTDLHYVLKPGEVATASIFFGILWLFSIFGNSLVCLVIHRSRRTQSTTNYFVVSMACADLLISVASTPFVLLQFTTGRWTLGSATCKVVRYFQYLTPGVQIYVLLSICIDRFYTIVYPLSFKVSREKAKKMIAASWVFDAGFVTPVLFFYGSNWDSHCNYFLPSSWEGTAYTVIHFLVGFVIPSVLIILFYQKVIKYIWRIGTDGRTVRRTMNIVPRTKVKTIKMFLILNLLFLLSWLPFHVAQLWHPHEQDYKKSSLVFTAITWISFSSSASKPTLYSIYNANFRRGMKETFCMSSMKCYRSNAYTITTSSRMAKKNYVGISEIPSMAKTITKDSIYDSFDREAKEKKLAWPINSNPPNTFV
Particulars: 10µM, Favipiravir 100μM.

Assay [5] addresses T5, 348 GPCRs (Homo sapiens, UniProt Q9NYW7).
T5 construct: expressed in transfected cells; host or cells: HEK293A
T5 sequence (Q9NYW7 1-299): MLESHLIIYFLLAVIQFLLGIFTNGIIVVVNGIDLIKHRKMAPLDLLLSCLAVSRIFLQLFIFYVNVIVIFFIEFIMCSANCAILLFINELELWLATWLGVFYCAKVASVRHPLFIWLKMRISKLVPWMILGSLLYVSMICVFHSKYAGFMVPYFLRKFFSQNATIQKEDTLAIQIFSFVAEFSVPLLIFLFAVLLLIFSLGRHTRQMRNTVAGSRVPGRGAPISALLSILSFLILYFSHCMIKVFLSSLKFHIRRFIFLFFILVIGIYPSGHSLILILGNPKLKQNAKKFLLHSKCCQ
Particulars: 10µM, Favipiravir 100μM.

For assay [6], the target named is T6, 348 GPCRs (Homo sapiens, UniProt Q16570).
T6 construct: expressed in transfected cells; host or cells: HEK293A
T6 sequence (Q16570 1-336): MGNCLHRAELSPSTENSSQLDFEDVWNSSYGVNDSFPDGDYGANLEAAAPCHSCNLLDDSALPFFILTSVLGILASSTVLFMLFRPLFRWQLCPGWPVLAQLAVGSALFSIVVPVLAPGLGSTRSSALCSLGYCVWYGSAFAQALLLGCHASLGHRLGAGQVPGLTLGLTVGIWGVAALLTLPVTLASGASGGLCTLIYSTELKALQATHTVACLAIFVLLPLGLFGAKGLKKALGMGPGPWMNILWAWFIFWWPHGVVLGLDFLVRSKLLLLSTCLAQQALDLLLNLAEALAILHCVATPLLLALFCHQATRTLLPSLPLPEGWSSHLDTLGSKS
Particulars: 10µM, Favipiravir 100μM.

The target of assay [7] is T7, 348 GPCRs (Homo sapiens, UniProt Q9NZH0).
T7 construct: expressed in transfected cells; host or cells: HEK293A
T7 sequence (Q9NZH0 29-403): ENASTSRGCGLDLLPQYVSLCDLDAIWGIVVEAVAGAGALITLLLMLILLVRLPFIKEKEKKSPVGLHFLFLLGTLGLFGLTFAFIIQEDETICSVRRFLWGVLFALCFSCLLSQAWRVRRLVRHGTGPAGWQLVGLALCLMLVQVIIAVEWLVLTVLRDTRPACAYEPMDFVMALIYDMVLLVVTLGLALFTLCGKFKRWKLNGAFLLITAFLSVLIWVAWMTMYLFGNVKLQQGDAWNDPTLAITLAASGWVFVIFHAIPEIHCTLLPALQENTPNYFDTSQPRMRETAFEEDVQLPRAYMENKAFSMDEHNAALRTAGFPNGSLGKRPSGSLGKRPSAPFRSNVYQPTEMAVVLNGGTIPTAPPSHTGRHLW
Particulars: 10µM, Favipiravir 100μM.

For assay [8], the target named is T8, 348 GPCRs (Homo sapiens, UniProt Q5NUL3).
T8 construct: expressed in transfected cells; host or cells: HEK293A
T8 sequence (Q5NUL3 1-361): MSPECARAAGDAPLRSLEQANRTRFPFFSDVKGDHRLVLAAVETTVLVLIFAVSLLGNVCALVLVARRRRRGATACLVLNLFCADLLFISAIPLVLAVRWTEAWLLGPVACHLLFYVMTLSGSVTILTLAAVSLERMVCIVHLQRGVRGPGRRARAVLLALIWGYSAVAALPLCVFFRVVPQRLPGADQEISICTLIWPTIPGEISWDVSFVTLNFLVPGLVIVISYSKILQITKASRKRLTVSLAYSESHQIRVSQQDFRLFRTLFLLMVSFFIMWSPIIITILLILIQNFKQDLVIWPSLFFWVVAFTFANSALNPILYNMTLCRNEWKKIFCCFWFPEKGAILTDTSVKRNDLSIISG

In assay [9] the target is T9, 348 GPCRs (Homo sapiens, UniProt P48039).
T9 construct: expressed in transfected cells; host or cells: HEK293A
T9 sequence (P48039 whole entry): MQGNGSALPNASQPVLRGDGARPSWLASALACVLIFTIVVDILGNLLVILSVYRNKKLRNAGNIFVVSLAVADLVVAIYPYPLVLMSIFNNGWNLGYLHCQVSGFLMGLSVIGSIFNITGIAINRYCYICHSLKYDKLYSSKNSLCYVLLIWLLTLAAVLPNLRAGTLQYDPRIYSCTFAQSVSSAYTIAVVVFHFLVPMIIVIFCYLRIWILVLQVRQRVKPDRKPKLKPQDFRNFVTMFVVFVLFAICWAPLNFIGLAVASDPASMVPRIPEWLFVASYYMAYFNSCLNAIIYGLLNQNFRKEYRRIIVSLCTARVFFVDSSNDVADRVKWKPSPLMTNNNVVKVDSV
Particulars: 10µM, Favipiravir 100μM.

The target in assay [10] is T10, 348 GPCRs (Homo sapiens, UniProt O95136).
T10 construct: expressed in transfected cells; host or cells: HEK293A
T10 sequence (O95136 whole entry): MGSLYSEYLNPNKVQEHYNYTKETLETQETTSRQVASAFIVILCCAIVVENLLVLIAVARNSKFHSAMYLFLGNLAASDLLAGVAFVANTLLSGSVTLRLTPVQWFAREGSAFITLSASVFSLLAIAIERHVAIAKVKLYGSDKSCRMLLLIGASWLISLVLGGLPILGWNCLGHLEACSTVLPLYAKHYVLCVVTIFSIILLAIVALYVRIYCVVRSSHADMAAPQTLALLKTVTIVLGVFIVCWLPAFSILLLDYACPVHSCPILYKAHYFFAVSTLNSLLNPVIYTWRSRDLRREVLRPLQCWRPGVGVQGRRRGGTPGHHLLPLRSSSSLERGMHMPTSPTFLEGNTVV
Particulars: 10µM, Favipiravir 100μM.

Setting [11] is: read-out: % GPCR activation compared to TPA, DP2 (prostaglandin D2 receptor 2).
The mark [12] stands for this setting: read-out: % GPCR activation compared to TPA, H4 (histamine receptor H4).
Where [13] appears, read: read-out: % GPCR activation compared to TPA, S1PR4 (sphingosine-1-phosphate receptor 4).
Setting [14] is: read-out: % GPCR activation compared to TPA, GPR19 (G Protein-Coupled Receptor 19).
[15] abbreviates: read-out: % GPCR activation compared to TPA, TAS2R1 (taste receptor, type 2, member 1).
Where [16] appears, read: read-out: % GPCR activation compared to TPA, DARC (Duffy blood group, chemokine receptor).
[17] abbreviates: read-out: % GPCR activation compared to TPA, GPRC5B (G protein-coupled receptor class C group 5 member B).
Setting [18] is: read-out: % GPCR activation compared to TPA, FFA4 (free fatty acid receptor 4), Favipiravir 100μM.
Where [19] appears, read: read-out: % GPCR activation compared to TPA, GPCR GPR120 (Free Fatty Acid Receptor 4 (FFAR4)).
[20] abbreviates: read-out: % GPCR activation compared to TPA, MT1R (melatonin receptor type 1A).
Setting [21] is: read-out: % GPCR activation compared to TPA, S1PR2 (sphingosine-1-phosphate receptor 2).
The mark [22] stands for this setting: DP2 (prostaglandin D2 receptor 2), read-out: % GPCR activation compared to TPA.
The mark [23] stands for this setting: H4 (histamine receptor H4), read-out: % GPCR activation compared to TPA.
Where [24] appears, read: S1PR4 (sphingosine-1-phosphate receptor 4), read-out: % GPCR activation compared to TPA.
Where [25] appears, read: GPR19 (G Protein-Coupled Receptor 19), read-out: % GPCR activation compared to TPA.
Where [26] appears, read: TAS2R1 (taste receptor, type 2, member 1), read-out: % GPCR activation compared to TPA.
The mark [27] stands for this setting: DARC (Duffy blood group, chemokine receptor), read-out: % GPCR activation compared to TPA.
Setting [28] is: GPRC5B (G protein-coupled receptor class C group 5 member B), read-out: % GPCR activation compared to TPA.
The mark [29] stands for this setting: FFA4 (free fatty acid receptor 4), Favipiravir 100μM, read-out: % GPCR activation compared to TPA.
The mark [30] stands for this setting: MT1R (melatonin receptor type 1A), read-out: % GPCR activation compared to TPA.
[31] abbreviates: S1PR2 (sphingosine-1-phosphate receptor 2), read-out: % GPCR activation compared to TPA.
The mark [32] stands for this setting: GPCR GPR120 (Free Fatty Acid Receptor 4 (FFAR4)), read-out: % GPCR activation compared to TPA.

Where two headings read alike, the source gives them in different places.

For `CC(C)OC(=O)[C@H](C)N[P@](=O)(OC[C@H]1O[C@@H](n2ccc(=O)[nH]c2=O)[C@](C)(F)[C@@H]1O)Oc1ccccc1` [sofosbuvir], the activation at 100 µM in [1] (setting [11]) was 0.675%; in assay [2] (setting [12]), -3.28%; in [4] (setting [14]) it was -1.2%; in assay [5] (setting [15]), -0.974%; in [6] (setting [16]), -1.56%; in [7] (setting [17]) it was -12.5%. Besides, the activation at 10 µM was -2.24% in assay [3] (setting [13]); -2.55% in [8] (setting [18]); -1.1% in [8] (setting [19]); -4.49% in [9] (setting [20]); 0.199% in assay [10] (setting [21]).
As for `NC(=O)c1nc(F)cnc1O` [favipiravir, 6-fluoro-3-hydroxy-2-pyrazinecarboxamide], the activation at 100 µM in [1] (setting [22]) is 0.119%; in assay [2] (setting [23]), 1.77%; in [4] (setting [25]) it was -0.654%; in assay [5] (setting [26]) it was -0.27%; in assay [6] (setting [27]) it was 1.68%; in [7] (setting [28]), 7.41%. In assay [8] (GPCR GPR120 (Free Fatty Acid Receptor 4 (FFAR4)), 100μM, read-out: % GPCR activation compared to TPA), the activation at 100 µM is -1.72%. In addition, the activation at 10 µM was -3.38% in [3] (setting [24]), -8.27% in [8] (setting [29]), -1.27% in assay [9] (setting [30]) and -1.8% in assay [10] (setting [31]).
For the compound `CCC(CC)COC(=O)[C@H](C)N[P@](=O)(OC[C@H]1O[C@@](C#N)(c2ccc3c(N)ncnn23)[C@H](O)[C@@H]1O)Oc1ccccc1` [remdesivir], the activation at 100 µM in assay [1] (setting [11]) was 1.87%; in assay [2] (setting [12]) it was 7.16%; in assay [4] (setting [14]) it was -1.37%; in assay [5] (setting [15]) it was 0.931%; in [6] (setting [16]), 5.17%; in assay [7] (setting [17]) it was 6.88%. In addition, the activation at 10 µM in assay [3] (setting [13]) was -2.69%; in assay [8] (setting [18]), -7.9%; in assay [8] (setting [19]), 1.09%; in assay [9] (setting [20]), 0.542%; in [10] (setting [21]), -3.06%.
For the compound `N#C[C@@]1(c2ccc3c(N)ncnn23)O[C@H](CO)[C@@H](O)[C@H]1O` [GS441524], the activation at 100 µM was -0.745% in [1] (setting [22]); 5.54% in assay [2] (setting [23]); -0.932% in assay [4] (setting [25]); -0.408% in assay [5] (setting [26]); 1.78% in [6] (setting [27]); 4.38% in [7] (setting [28]). Moreover, the activation at 10 µM is -3.24% in assay [3] (setting [24]); -7.33% in assay [8] (setting [29]); 0.817% in assay [8] (setting [32]); 0.391% in assay [9] (setting [30]); -1.37% in [10] (setting [31]).
Take `CC(C)C(=O)OC[C@H]1O[C@@H](n2ccc(NO)nc2=O)[C@H](O)[C@@H]1O` [molnupiravir]: the activation at 100 µM in assay [1] (setting [22]) was 0.374%; in assay [2] (setting [23]) it was -3.71%; in assay [4] (setting [25]), -0.76%; in assay [5] (setting [26]), -0.93%; in assay [6] (setting [27]), 0.223%; in assay [7] (setting [28]), -3.43%. For the same compound, the activation at 10 µM was -2.08% in assay [3] (setting [24]); -1.75% in assay [8] (setting [29]); -1.23% in [8] (setting [32]); -4.07% in assay [9] (setting [30]); -2.13% in assay [10] (setting [31]).
